According to ChEMBL document CHEMBL1201862, “PubChem BioAssay data set” (2004):
Several values for one entry are separate records, joined by “and”; a condition that tells them apart may be missing. Equal entries are not always repeated.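 Dose response: 5 concentrations. Exposure: 48 h. Format: 96-well plates. Endpoint: linear interpolation; highest concentration if not reached. At the GI50, growth is halved.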 Activity calls are given as the source filed them. Rule as the data show it: active = GI50 up to about 1.1 µM and inactive = higher.

Columns and labels:
Assay in all cases: NCI tumour cell line growth inhibition, 48 h
OVCAR-8 = tested on: OVCAR-8
SF-268 = tested on: SF-268
CCRF-CEM = tested on: CCRF-CEM
RPMI-8226 = tested on: RPMI-8226
COLO 205 = tested on: COLO 205
Malme-3M = tested on: Malme-3M
PC-3 = tested on: PC-3
EKVX = tested on: EKVX
OVCAR-5 = tested on: OVCAR-5
SK-MEL-28 = tested on: SK-MEL-28
786-0 = tested on: 786-0
TK-10 = tested on: TK-10
HT-29 = tested on: HT-29
RXF 393 = tested on: RXF 393
MDA-MB-435 = tested on: MDA-MB-435
A549 = tested on: A549
U-251 = tested on: U-251
OVCAR-3 = tested on: OVCAR-3
SK-OV-3 = tested on: SK-OV-3
HOP-92 = tested on: HOP-92

Measured: GI50

O=c1ccn(C2OC(CO)C(O)C2F)c(=O)n1Cc1ccccc1 (stereo unspecified)
inactive: OVCAR-8 > 100 µM | SF-268 > 100 µM | CCRF-CEM > 100 µM | RPMI-8226 > 100 µM | COLO 205 > 100 µM | Malme-3M > 100 µM | PC-3 > 100 µM | EKVX > 100 µM | OVCAR-5 > 100 µM | SK-MEL-28 > 100 µM | 786-0 > 100 µM | TK-10 > 100 µM | HT-29 > 100 µM | RXF 393 > 100 µM | MDA-MB-435 > 100 µM | A549 > 100 µM | U-251 > 100 µM | OVCAR-3 > 100 µM

Cc1c(NC(=S)NC(=O)c2ccc([N+](=O)[O-])cc2)c(=O)n(-c2ccccc2)n1C
inactive: OVCAR-8 > 100 µM | SF-268 > 100 µM | CCRF-CEM > 100 µM | RPMI-8226 > 100 µM | COLO 205 > 100 µM | Malme-3M > 100 µM | EKVX > 100 µM | OVCAR-5 > 100 µM | SK-OV-3 > 100 µM | SK-MEL-28 > 100 µM | 786-0 > 100 µM | TK-10 > 100 µM | HOP-92 > 100 µM | HT-29 > 100 µM | RXF 393 > 100 µM | A549 > 100 µM | U-251 > 100 µM | OVCAR-3 > 100 µM

NC(=O)Nc1c(Cl)cc(S(N)(=O)=O)cc1Cl
inactive: OVCAR-8 > 100 µM | SF-268 > 100 µM | CCRF-CEM > 100 µM | RPMI-8226 > 100 µM | COLO 205 > 100 µM | Malme-3M > 100 µM | EKVX > 100 µM | OVCAR-5 > 100 µM | SK-OV-3 > 100 µM | SK-MEL-28 > 100 µM | 786-0 > 100 µM | TK-10 > 100 µM | HOP-92 > 100 µM | HT-29 > 100 µM | RXF 393 > 100 µM | MDA-MB-435 > 100 µM | A549 > 100 µM | U-251 > 100 µM | OVCAR-3 > 100 µM

CC(=O)OC12c3ccccc3C(c3ccccc31)C1C(=O)N(c3ccccc3O)C(=O)C12 (stereo unspecified)
inactive: OVCAR-8 > 100 µM | SF-268 80.5 µM | CCRF-CEM 57.3 µM | RPMI-8226 66.5 µM | COLO 205 > 100 µM | Malme-3M 90.4 µM | PC-3 > 100 µM | EKVX > 100 µM | OVCAR-5 > 100 µM | SK-OV-3 > 100 µM | SK-MEL-28 > 100 µM | 786-0 > 100 µM | TK-10 > 100 µM | HT-29 70.5 µM | RXF 393 > 100 µM | A549 > 100 µM | U-251 > 100 µM | OVCAR-3 90.8 µM

COc1ccc(N2C(=O)/C(=C\c3cc(OC)c(OC)c(OC)c3)S(=O)(=O)C2c2ccccc2)cc1 (stereo unspecified)
inactive: OVCAR-8 25.2 µM | SF-268 52 µM | CCRF-CEM 39.2 µM | RPMI-8226 12.2 µM | COLO 205 4.39 µM | Malme-3M 47.4 µM | SK-OV-3 37.5 µM | SK-MEL-28 50.7 µM | 786-0 43.5 µM | TK-10 > 100 µM | HOP-92 41.7 µM | RXF 393 15.7 µM | MDA-MB-435 21.8 µM | A549 26.2 µM | U-251 11.3 µM | OVCAR-3 27 µM

O=c1c2ccccc2[nH]c2c(Cl)cc(Cl)c(N3CCCCC3)c12
inactive: OVCAR-8 40 µM | CCRF-CEM > 10 µM | RPMI-8226 29.9 µM | COLO 205 37.8 µM | PC-3 35.5 µM | EKVX 28.9 µM | OVCAR-5 34.5 µM | SK-OV-3 62.4 µM | SK-MEL-28 58.5 µM | 786-0 > 10 µM | TK-10 39.7 µM | HT-29 16 µM | MDA-MB-435 22.8 µM | A549 33.2 µM | U-251 24.4 µM | OVCAR-3 31.1 µM

NC1=NC(=O)[C@H](CSCc2ccccc2)N1C(=O)OCc1ccccc1
inactive: OVCAR-8 > 100 µM | SF-268 > 100 µM | COLO 205 > 100 µM | Malme-3M > 100 µM | PC-3 > 100 µM | EKVX > 100 µM | OVCAR-5 > 100 µM | 786-0 > 100 µM | TK-10 > 100 µM | HT-29 > 100 µM | RXF 393 > 100 µM | MDA-MB-435 > 100 µM | U-251 > 100 µM | OVCAR-3 > 100 µM

Nc1nc(NNc2cccc(F)c2)cc(=O)[nH]1
inactive: OVCAR-8 42.4 µM | CCRF-CEM 43.5 µM | RPMI-8226 32.2 µM | COLO 205 23.3 µM | Malme-3M 74.8 µM | PC-3 25.2 µM | EKVX > 100 µM | OVCAR-5 > 100 µM | SK-MEL-28 > 100 µM | 786-0 18.8 µM | TK-10 > 100 µM | HT-29 22.5 µM | MDA-MB-435 25.9 µM | A549 29.6 µM | U-251 20.7 µM | OVCAR-3 24.9 µM

C[C@]12CCc3nonc3C1CC[C@@H]1C2CC[C@]2(C)C(=O)/C(=N\O)CC12 (stereo partly specified)
inactive: OVCAR-8 > 100 µM | SF-268 > 100 µM | CCRF-CEM > 100 µM | RPMI-8226 > 100 µM | COLO 205 54.3 µM | Malme-3M > 100 µM | EKVX > 100 µM | OVCAR-5 > 100 µM | SK-OV-3 > 100 µM | SK-MEL-28 > 100 µM | 786-0 > 100 µM | TK-10 > 100 µM | HOP-92 > 100 µM | HT-29 > 100 µM | RXF 393 3.87 µM | A549 > 100 µM | U-251 > 100 µM | OVCAR-3 > 100 µM

CCc1cccc(CC)c1NC(=O)C1=C(C)NC(C)=C(C(=O)Nc2c(CC)cccc2CC)C1c1ccc([N+](=O)[O-])cc1
inactive: OVCAR-8 20.4 µM | SF-268 33.7 µM | CCRF-CEM 15.5 µM | RPMI-8226 11.4 µM | COLO 205 18 µM | Malme-3M 17.3 µM | EKVX 23.5 µM | OVCAR-5 44.7 µM | SK-OV-3 38.1 µM | SK-MEL-28 17.4 µM | 786-0 13.9 µM | TK-10 30.4 µM | HOP-92 10.3 µM | HT-29 17.1 µM | RXF 393 17.1 µM | A549 23 µM | U-251 40.5 µM | OVCAR-3 32.1 µM

C[C@]12CCC(=O)C=C1CC[C@@H]1C2CC[C@]2(C)c3nn(-c4ccccc4)nc3CC12 (stereo partly specified)
inactive: OVCAR-8 > 100 µM | SF-268 > 100 µM | CCRF-CEM > 100 µM | RPMI-8226 > 100 µM | COLO 205 > 100 µM | Malme-3M > 100 µM | EKVX > 100 µM | OVCAR-5 > 100 µM | SK-OV-3 > 100 µM | SK-MEL-28 > 100 µM | 786-0 > 100 µM | TK-10 > 100 µM | HOP-92 > 100 µM | HT-29 > 100 µM | RXF 393 > 100 µM | A549 > 100 µM | U-251 > 100 µM | OVCAR-3 > 100 µM

N#CC1=C(Cl)NC(Cl)=C(C#N)C1c1c(Cl)cccc1Cl
inactive: OVCAR-8 26.1 µM | SF-268 30.4 µM | CCRF-CEM 24.4 µM | RPMI-8226 22.5 µM | COLO 205 17.5 µM | Malme-3M 46 µM | EKVX 49.8 µM | OVCAR-5 > 100 µM | SK-OV-3 29.7 µM | SK-MEL-28 35.2 µM | 786-0 25.1 µM | TK-10 36.5 µM | HOP-92 21.4 µM | HT-29 31.4 µM | RXF 393 22.6 µM | A549 29.1 µM | U-251 16.3 µM | OVCAR-3 25.1 µM

CCCc1cc(=O)oc2c3c(c4c(c12)OC(C)(C)C=C4)O[C@@H](C)[C@H](C)C3=O
inactive: OVCAR-8 17.1 µM | SF-268 17.1 µM | CCRF-CEM 15.1 µM | RPMI-8226 3.83 µM | COLO 205 18.6 µM | Malme-3M 19.5 µM | PC-3 15.5 µM | EKVX 12.2 µM | OVCAR-5 17.9 µM | SK-MEL-28 13 µM | 786-0 16.9 µM | TK-10 20.7 µM | HT-29 8.71 µM | RXF 393 > 10 µM | MDA-MB-435 21.9 µM | A549 8.83 µM | U-251 23.4 µM | OVCAR-3 17.2 µM

N#Cc1c(-c2ccccc2)c(C#N)c(=S)n(C2OCC(O)C(O)C2O)c1N (stereo unspecified)
inactive: OVCAR-8 > 100 µM | SF-268 > 100 µM | CCRF-CEM > 100 µM | RPMI-8226 > 100 µM | Malme-3M > 100 µM | PC-3 > 100 µM | OVCAR-5 > 100 µM | SK-OV-3 > 100 µM | SK-MEL-28 > 100 µM | 786-0 > 100 µM | TK-10 30.8 µM and 61.5 µM | HT-29 > 100 µM | MDA-MB-435 > 100 µM | A549 > 100 µM | OVCAR-3 > 100 µM

CCCCOC(=O)C1C2CCC(O2)C1C(=O)OCCCC (stereo unspecified)
inactive: OVCAR-8 > 100 µM | SF-268 > 55.8 µM | CCRF-CEM > 100 µM | RPMI-8226 > 49.9 µM | COLO 205 > 42.5 µM | Malme-3M > 100 µM | EKVX > 100 µM | OVCAR-5 > 89.9 µM | SK-OV-3 > 100 µM | SK-MEL-28 > 96.8 µM | 786-0 > 44.8 µM | TK-10 > 100 µM | HOP-92 > 100 µM | HT-29 > 45.7 µM | RXF 393 > 61.9 µM | A549 > 45.4 µM | U-251 > 65.6 µM | OVCAR-3 > 100 µM

CC1=C(O)C(=O)C2C(=O)C1C(C)C2c1ccccc1 (stereo unspecified)
inactive: OVCAR-8 > 100 µM | SF-268 > 100 µM | CCRF-CEM > 100 µM | RPMI-8226 > 100 µM | COLO 205 > 100 µM | Malme-3M > 100 µM | EKVX > 100 µM | OVCAR-5 > 100 µM | SK-OV-3 > 100 µM | SK-MEL-28 > 100 µM | 786-0 > 100 µM | TK-10 > 100 µM | HOP-92 > 100 µM | HT-29 > 100 µM | RXF 393 > 100 µM | A549 > 100 µM | U-251 > 100 µM | OVCAR-3 > 100 µM
